Counter-ions that a name gives are not always drawn. Like-named read-outs stand apart in the source and are kept apart here. Some results are limits rather than exact numbers.

The target in assay [1] is EML4-ALK wt v1 in NIH-3T3 cells (Homo sapiens, UniProt Q9UM73).
Assay [2] concerns the target T1, ALK enzyme (Homo sapiens, UniProt Q9UM73).
T1 construct: purchased Invitrogen PV4185
Description: ALK enzymatic activity assay 1. The assay is classed as biochemical. The protocol: ALK Enzymatic Activity Assay 1
Compounds were added at a final concentration of 1% DMSO in half-log dilutions, starting at 20 μM final concentration. The reactions were initiated by the addition of 10 μL of peptide/ATP mix to 10 μL enzyme and 2 μL of compound in 384-well plate. […] On the 12-sipper chip, substrate and phosphorylated product were separated with an upstream voltage of −2650 V, a downstream voltage of −500 V, and a screen pressure of −1.5 psi. The relative peak heights of substrate and product were measured and ratios were calculated using HTS Well Analyzer Software version 5.2.43 from the manufacturer.

Assay [3] has as its target T2, human recombinant wild-type ALK kinase domain (amino acids 1093-1411) (Homo sapiens, UniProt Q9UM73).
T2 construct: ALK kinase domain (amino acids 1093-1411); made in house
The assay can be described thus: ALK enzyme assay 2 (microfluidic mobility shift assay).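 Note: kinase reaction run 1 h at room temperature, conversion quantified by electrophoretic separation of fluorescent peptide substrate from phosphorylated product, about 15-20% turnover without inhibitor.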 The assay is classed as biochemical.
Description: The reactions were incubated for 1 h at room temperature, stopped by the addition of 0.1 M EDTA, pH 8, and the extent of reactions (˜15-20% conversion with no inhibitor) was determined after electrophoretic separation of the fluorescently labeled peptide substrate and phosphorylated product on an LabChip EZ Reader II (Caliper Life Sciences, Hopkinton, Mass.).

Assay [4] concerns the target T3, cMet enzyme (Homo sapiens, UniProt P08581).
T3 construct: RTC Lot#032006
Description: cMet enzymatic activity assay. The assay is classed as biochemical. As to conditions: purified cMet enzyme 7.5 nM, ATP 17 μM (Km). The protocol: cMet Enzymatic Activity Assay
Compounds were added at a final concentration of 2% DMSO in half-log dilutions, starting at 20 μM final concentration. The reactions were initiated by addition of 10 μL of peptide/ATP mix to 10 μL enzyme and 5 μL of compound in 384-well plate. […] Substrate and phosphorylated product were separated with an upstream voltage of −2650 V, a downstream voltage of −500V, and a screen pressure of −1.5 psi. The relative peak heights of substrate and product were measured and ratios were calculated using HTS Well Analyzer Software version 5.2.43 from the manufacturer.

T3 sequence (P08581 25-1390): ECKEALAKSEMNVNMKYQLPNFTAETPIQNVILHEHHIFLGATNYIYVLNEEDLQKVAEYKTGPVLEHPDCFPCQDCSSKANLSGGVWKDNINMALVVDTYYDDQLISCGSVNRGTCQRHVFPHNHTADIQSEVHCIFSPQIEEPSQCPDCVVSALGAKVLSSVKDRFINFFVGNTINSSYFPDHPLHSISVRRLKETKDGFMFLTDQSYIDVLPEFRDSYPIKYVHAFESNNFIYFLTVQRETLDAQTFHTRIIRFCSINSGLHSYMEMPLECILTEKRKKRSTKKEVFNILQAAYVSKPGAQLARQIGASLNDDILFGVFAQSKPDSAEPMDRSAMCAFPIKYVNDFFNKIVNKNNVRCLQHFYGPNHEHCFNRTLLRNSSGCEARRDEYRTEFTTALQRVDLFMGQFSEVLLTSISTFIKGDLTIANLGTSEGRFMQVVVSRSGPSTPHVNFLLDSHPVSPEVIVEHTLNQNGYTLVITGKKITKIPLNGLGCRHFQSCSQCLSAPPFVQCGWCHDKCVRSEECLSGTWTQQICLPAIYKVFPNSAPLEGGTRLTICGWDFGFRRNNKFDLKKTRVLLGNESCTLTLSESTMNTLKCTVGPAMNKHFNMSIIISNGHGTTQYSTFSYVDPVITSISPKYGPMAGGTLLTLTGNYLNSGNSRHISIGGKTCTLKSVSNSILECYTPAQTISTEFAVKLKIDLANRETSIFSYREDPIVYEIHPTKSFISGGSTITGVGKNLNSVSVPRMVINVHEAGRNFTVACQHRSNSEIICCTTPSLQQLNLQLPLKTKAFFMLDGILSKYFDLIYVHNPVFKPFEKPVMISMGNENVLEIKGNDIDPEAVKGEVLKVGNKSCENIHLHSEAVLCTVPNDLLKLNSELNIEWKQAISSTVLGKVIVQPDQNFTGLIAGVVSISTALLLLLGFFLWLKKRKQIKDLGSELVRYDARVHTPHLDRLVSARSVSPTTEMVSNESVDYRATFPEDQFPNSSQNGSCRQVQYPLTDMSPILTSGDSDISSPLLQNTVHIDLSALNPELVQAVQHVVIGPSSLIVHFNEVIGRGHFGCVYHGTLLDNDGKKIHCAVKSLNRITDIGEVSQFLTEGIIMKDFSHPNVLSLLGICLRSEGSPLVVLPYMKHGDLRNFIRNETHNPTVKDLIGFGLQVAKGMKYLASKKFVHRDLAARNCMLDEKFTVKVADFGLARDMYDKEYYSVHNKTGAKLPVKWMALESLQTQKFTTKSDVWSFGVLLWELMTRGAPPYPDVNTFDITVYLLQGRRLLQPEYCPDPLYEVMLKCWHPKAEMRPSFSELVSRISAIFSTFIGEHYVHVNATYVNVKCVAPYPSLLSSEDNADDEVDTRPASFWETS
T2 sequence (Q9UM73 1093-1411): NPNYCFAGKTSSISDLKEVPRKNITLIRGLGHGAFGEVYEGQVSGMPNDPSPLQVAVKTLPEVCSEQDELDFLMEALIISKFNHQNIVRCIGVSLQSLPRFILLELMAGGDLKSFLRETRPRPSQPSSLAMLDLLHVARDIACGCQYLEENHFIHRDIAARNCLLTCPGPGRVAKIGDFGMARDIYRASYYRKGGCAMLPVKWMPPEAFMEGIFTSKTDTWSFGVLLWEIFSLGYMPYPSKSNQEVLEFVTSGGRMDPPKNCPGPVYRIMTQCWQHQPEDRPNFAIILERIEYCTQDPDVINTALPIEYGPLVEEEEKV
EML4-ALK wt v1 in NIH-3T3 cells, sequence (Q9UM73 with tags, fused parts or gaps): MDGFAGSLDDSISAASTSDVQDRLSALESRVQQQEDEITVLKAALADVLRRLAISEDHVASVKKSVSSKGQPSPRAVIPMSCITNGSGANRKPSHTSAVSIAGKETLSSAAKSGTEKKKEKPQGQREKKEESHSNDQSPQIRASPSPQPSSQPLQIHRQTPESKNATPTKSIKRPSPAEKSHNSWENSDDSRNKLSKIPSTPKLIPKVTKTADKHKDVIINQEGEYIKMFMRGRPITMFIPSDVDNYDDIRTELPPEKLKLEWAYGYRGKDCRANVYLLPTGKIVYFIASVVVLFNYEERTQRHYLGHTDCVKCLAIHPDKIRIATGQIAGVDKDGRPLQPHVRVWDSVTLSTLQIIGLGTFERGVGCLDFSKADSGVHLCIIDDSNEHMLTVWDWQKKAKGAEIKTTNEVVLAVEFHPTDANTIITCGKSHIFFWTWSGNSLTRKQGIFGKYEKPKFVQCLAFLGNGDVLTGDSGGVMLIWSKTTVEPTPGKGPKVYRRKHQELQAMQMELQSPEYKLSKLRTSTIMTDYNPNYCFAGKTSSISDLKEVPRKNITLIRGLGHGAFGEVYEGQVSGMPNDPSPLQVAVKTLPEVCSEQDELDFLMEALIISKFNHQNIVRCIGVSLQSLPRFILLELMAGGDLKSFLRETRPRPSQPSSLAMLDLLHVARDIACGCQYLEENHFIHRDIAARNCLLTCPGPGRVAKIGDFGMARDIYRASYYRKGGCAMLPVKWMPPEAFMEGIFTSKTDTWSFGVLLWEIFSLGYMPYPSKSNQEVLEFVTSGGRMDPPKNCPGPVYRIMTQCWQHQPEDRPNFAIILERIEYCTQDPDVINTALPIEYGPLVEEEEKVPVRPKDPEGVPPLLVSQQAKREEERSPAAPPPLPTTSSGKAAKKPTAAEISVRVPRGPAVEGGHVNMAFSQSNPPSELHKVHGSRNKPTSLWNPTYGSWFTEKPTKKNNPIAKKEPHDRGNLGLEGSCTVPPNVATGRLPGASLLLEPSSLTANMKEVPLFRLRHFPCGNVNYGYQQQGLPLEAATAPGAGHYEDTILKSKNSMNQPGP
T1 sequence (Q9UM73 19-1620): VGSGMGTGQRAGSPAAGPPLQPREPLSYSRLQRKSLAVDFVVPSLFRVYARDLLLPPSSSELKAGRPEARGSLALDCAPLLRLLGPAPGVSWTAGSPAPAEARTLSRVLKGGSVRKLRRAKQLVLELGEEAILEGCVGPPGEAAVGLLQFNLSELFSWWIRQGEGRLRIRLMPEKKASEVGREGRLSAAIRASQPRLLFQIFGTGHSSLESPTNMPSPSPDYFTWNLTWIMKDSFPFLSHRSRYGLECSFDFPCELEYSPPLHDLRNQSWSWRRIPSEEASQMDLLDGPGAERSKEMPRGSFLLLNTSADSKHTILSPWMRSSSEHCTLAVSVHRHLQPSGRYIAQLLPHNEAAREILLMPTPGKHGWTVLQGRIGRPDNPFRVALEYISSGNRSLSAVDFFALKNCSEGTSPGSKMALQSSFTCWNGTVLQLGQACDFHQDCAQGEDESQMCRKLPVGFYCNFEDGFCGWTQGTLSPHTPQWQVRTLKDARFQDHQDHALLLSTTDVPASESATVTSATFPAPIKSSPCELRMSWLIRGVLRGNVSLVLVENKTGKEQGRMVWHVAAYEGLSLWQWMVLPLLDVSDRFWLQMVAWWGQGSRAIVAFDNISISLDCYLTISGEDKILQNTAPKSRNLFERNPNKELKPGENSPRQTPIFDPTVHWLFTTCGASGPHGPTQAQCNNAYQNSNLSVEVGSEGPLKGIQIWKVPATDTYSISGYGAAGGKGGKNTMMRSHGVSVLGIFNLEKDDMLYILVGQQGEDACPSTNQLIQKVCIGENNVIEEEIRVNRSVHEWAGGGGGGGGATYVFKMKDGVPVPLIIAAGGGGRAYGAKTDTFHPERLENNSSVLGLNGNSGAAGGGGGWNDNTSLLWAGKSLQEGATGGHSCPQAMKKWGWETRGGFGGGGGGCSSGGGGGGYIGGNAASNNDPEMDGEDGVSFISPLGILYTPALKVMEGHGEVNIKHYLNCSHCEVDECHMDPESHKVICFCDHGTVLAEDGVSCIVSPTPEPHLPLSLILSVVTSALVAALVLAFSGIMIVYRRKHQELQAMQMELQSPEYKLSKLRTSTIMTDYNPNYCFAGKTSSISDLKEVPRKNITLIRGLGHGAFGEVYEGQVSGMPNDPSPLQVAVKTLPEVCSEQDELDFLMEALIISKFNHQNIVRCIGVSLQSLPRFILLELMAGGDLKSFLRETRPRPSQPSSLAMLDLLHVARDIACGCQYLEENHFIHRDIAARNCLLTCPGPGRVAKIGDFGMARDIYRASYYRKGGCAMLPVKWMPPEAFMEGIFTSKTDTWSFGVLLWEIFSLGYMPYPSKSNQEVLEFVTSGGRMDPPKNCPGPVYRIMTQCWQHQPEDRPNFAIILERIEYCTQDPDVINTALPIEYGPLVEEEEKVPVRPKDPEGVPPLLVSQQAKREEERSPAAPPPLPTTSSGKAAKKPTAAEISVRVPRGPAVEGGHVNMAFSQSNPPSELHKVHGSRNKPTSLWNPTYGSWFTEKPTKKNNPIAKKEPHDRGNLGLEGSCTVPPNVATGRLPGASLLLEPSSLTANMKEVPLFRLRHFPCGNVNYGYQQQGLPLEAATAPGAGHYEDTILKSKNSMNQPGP

For `CC(Oc1cc(-c2cn(C)cn2)cnc1N)c1cc(F)ccc1Cl` (stereo not shown) [Example 23, 3-[1-(2-chloro-5-fluorophenyl)-ethoxy]-5-(1-methyMH-imidazol-4-yl)pyridin-2-amine], the IC50 in assay [1] (read-out: ELISA assay for WT EML4-ALK (IC50), cellular phospho-ALK (Tyr1604), NIH-3T3 EML4-ALK wt v1 cells, 1 hour) was 1080 nM; in assay [2] (purified ALK enzyme 10 nM, ATP 25 μM (Km)), 271 nM; in assay [4], greater than 19100 nM. Further, in assay [3], the Ki is 45 nM.
Consider `COc1ccc(F)cc1[C@@H](C)Oc1cc(-c2c(C)nn(CC(O)CO)c2C)cnc1N` (stereo partly drawn) [Example 26, 3-(4-{6-amino-5-[(1R)-1-(5-fluoro-2-methoxyphenyl)-ethoxy]pyridin-3-yl}-3,5-dimethyl-1H-pyrazol-1-yl)propane-1,2-diol], for which the IC50 in assay [1] was 4.54 nM; in assay [2], 24.1 nM; in assay [4], 4300 nM. Besides, in assay [3], the Ki is less than 0.313 nM.
For `COc1ccc(F)cc1[C@@H](C)Oc1cc(-c2cccnc2CO)cnc1N` [Example 27, {6′-amino-5′-[(1R)-1-(5-fluoro-2-methoxyphenyl)-ethoxy]-3,3′-bipyridin-2-yl}methanol], in that order: 138 nM, 47.3 nM, greater than 15400 nM and 3.1 nM.
For `CC(Oc1cc(-c2ccnn2C)cnc1N)c1cc(F)ccc1-n1ccnn1` (stereo not shown) [Example 32, 3-{1-[5-fluoro-2-(1H-1,2,3-triazol-1-yl)phenyl]-ethoxy}-5-(1-methyl-1H-pyrazol-5-yl)pyridin-2-amine], in that order: 883 nM, 105 nM, greater than 20000 nM and 36 nM.
For `COc1ncc(F)cc1C(C)Oc1cc(-c2ccnn2C)cnc1N` (stereo not shown) [Example 33, 3-[1-(5-fluoro-2-methoxypyridin-3-yl)ethoxy]-5-(1-methyl-1H-pyrazol-5-yl)pyridin-2-amine monohydrochloride], in that order: 380 nM, 89.2 nM, greater than 20000 nM and 4.8 nM.
As to `COc1ncc(F)cc1[C@@H](C)Oc1cc(-c2ccnn2C)cnc1N` [Example 34, 3-[(1R)-1-(5-fluoro-2-methoxypyridin-3-yl)ethoxy]-5-(1-methyl-1H-pyrazol-5-yl)pyridin-2-amine], the IC50 in assay [1] is 302 nM; in assay [2] it was 71.1 nM; in assay [4], greater than 17800 nM. In addition, the Ki in assay [3] is 3.8 nM.
For `CC(Oc1cc(-c2ccnn2C)cnc1N)c1cc(F)ccc1C#N` (stereo not shown) [Example 36, 2-(1-{[2-amino-5-(1-methyl-1H-pyrazol-5-yl)pyridin-3-yl]oxy}ethyl)-4-fluorobenzonitrile monohydrochloride], in that order: 862 nM, 120 nM, greater than 15800 nM and 22 nM.
For the molecule `CC(Oc1cc(-c2ccnn2C)cnc1N)c1cc(F)ccc1-n1cccn1` (stereo not shown) [Example 37, 3-{1-[5-fluoro-2-(1H-pyrazol-1-yl)phenyl]-ethoxy}-5-(1-methyl-1H-pyrazol-5-yl)pyridin-2-amine], the IC50 was found to be 147 nM in assay [1], 70.3 nM in assay [2] and 8090 nM in assay [4]. Besides, the Ki in assay [3] was 1.55 nM.
The matching figures for `COc1ncc(F)cc1C(C)Oc1cc(-c2c[nH]nc2C)cnc1N` (stereo not shown) [Example 41, 3-[1-(5-fluoro-2-methoxypyridin-3-yl)ethoxy]-5-(3-methyl-1H-pyrazol-4-yl)pyridin-2-amine]: 58.6 nM, 15.7 nM, 5590 nM and 0.922 nM.
Consider `CC(Oc1cc(-c2ccnn2C)cnc1N)c1cc(F)cc2scnc12` (stereo not shown) [Example 42, 3-[1-(6-fluoro-1,3-benzothiazol-4-yl)ethoxy]-5-(1-methyl-1H-pyrazol-5-yl)pyridin-2-amine], for which the IC50 in assay [1] is 263 nM; in assay [2] it was 58.1 nM; in assay [4], greater than 15900 nM. For the same molecule, the Ki in assay [3] is 2.05 nM.
The matching figures for `Cc1n[nH]cc1-c1cnc(N)c(OC(C)c2cc(F)ccc2Cl)c1` (stereo not shown) [Example 45, 3-[1-(2-chloro-5-fluorophenyl)ethoxy]-5-(3-methyl-1H-pyrazol-4-yl)pyridin-2-amine]: 106 nM, 75.6 nM, 4160 nM and 1.57 nM.
The matching figures for `Cc1n[nH]cc1-c1cnc(N)c(OC(C)c2cc(F)ccc2-n2cccn2)c1` (stereo not shown) [Example 47, 3-{1-[5-fluoro-2-(1H-pyrazol-1-yl)phenyl]-ethoxy}-5-(3-methyl-1H-pyrazol-4-yl)pyridin-2-amine]: 45.7 nM, 70.5 nM, 2850 nM and less than 0.2 nM.
The matching figures for `COc1ccncc1-c1cnc(N)c(OC(C)c2cc(F)ccc2OC)c1` (stereo not shown) [Example 50, 5-[1-(5-fluoro-2-methoxyphenyl)-ethoxy]-4′-methoxy-3,3′-bipyridin-6-amine]: 58.4 nM, 50.2 nM, 5070 nM and 0.739 nM.
As to `CC(Oc1cc(-c2ccnn2C)cnc1N)c1cc(F)cc2cccnc12` (stereo not shown) [Example 51, 3-[1-(6-fluoroquinolin-8-yl)ethoxy]-5-(1-methyl-1H-pyrazol-5-yl)pyridin-2-amine], the IC50 is 1450 nM in assay [1], 45.2 nM in assay [2] and 7870 nM in assay [4]. The Ki in assay [3] was found to be 61 nM.
For the molecule `Cc1n[nH]c(C)c1-c1cnc(N)c(OC(C)c2cc(F)ccc2-n2cccn2)c1` (stereo not shown) [Example 52, 5-(3,5-dimethyl-1H-pyrazol-4-yl)-3-{1-[5-fluoro-2-(1H-pyrazol-1-yl)phenyl]-ethoxy}pyridin-2-amine], the results for the IC50 in assay [1], in assay [2] and in assay [4] were 14.5 nM, 73.3 nM and 10400 nM, respectively. Further, the Ki in assay [3] turned out to be 1.1 nM.
The matching figures for `COc1ccc(F)cc1[C@@H](C)Oc1cc(-c2c(C)nn(CCO)c2C)cnc1N` [Example 53, 2-(4-{6-amino-5-[(1R)-1-(5-fluoro-2-methoxyphenyl)-ethoxy]pyridin-3-yl}-3,5-dimethyl-1H-pyrazol-1-yl)ethanol]: 23.3 nM, 27 nM, 4440 nM and 0.401 nM.
Consider `COc1ccc(F)cc1C(C)Oc1cc(-c2c(C)noc2C)cnc1N` (stereo not shown) [Example 54, 5-(3,5-dimethylisoxazol-4-yl)-3-[1-(5-fluoro-2-methoxyphenyl)-ethoxy]pyridin-2-amine], for which the figures for the IC50 in assay [1], in assay [2] and in assay [4] were 194 nM, 47.2 nM and greater than 18200 nM, respectively. The Ki in assay [3] came out at 1.3 nM.
For the molecule `CC(Oc1cc(-c2ccnn2C)nnc1N)c1cc(F)ccc1-n1cccn1` (stereo not shown) [Example 55, 4-{1-[5-fluoro-2-(1H-pyrazol-1-yl)phenyl]ethoxy}-6-(1-methyl-1H-pyrazol-5-yl)pyridazin-3-amine], the IC50 was 1760 nM in assay [1], 87.6 nM in assay [2] and greater than 20000 nM in assay [4]. In assay [3], the Ki was 43 nM.
For `COc1ccc(F)cc1[C@@H](C)Oc1cc(-c2ccnn2C)nnc1N` [Example 56, 4-[(1R)-1-(5-fluoro-2-methoxyphenyl)ethoxy]-6-(1-methyl-1H-pyrazol-5-yl)pyridazin-3-amine], in that order: 361 nM, 47.5 nM, greater than 20000 nM and 6.4 nM.

For the origin of these results see patent US8916593B2, “Alkoxy-substituted 2-aminopyridines as ALK inhibitors” (Pfizer Inc., priority 2010, dated 2014).
